Reference: US20140011799A1 (Bristol-Myers Squibb Company, priority 2012, published 2014)
pIC50: −log10 of the molar value.

Experiments:
[1] = molecular target: T1, Endothelial lipase (EL) (Homo sapiens, UniProt Q9Y5X9); assay: Endothelial lipase (EL) enzymatic assay, fluorescent substrate A10070 in DMPG vesicles; format: biochemical; conditions: EL from conditioned media of HT-1080 cells; compound preincubated 30 min at 37° C; read-out: EL IC50
T1 construct: HT-1080 cells that were transformed using RAGE technology (Athersys) to overexpress endogenous EL; endogenous in cells; conditioned medium used
T1 sequence (Q9Y5X9 21-500): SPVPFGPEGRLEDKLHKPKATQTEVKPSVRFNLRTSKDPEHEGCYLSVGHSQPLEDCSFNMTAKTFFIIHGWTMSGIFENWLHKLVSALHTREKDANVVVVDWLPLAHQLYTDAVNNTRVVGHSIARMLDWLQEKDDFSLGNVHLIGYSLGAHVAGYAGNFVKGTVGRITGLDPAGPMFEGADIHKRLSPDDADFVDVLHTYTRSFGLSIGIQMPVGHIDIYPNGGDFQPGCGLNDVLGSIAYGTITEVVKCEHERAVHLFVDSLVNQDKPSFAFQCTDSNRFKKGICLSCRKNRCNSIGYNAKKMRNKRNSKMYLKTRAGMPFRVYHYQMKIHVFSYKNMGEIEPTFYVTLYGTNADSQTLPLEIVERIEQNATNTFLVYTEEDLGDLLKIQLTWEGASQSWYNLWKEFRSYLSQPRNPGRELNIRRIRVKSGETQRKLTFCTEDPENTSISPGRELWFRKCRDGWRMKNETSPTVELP
Outline: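 EL from conditioned medium of HT-1080 cells engineered to overexpress endogenous EL; HL partially purified from conditioned medium of HL-overexpressing COS cells. Enzyme preincubated with compound 30 min at 37° C in 50 mM HEPES pH 8.0, 50 mM NaCl, 1 mM CaCl2; DMPG vesicles carrying FRET substrate (0.11 mole fraction) then added.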

[2] = molecular target: T2, hepatic lipase (HL) (Homo sapiens, UniProt P11150); assay: Hepatic lipase (HL) enzymatic assay, fluorescent substrate A10070 in DMPG vesicles; format: biochemical; conditions: HL partially purified from conditioned media of COS cells; compound preincubated 30 min at 37° C; read-out: HL IC50
T2 construct: made in house; host or cells: COS cells (conditioned medium, partially purified)
T2 sequence (P11150 23-499): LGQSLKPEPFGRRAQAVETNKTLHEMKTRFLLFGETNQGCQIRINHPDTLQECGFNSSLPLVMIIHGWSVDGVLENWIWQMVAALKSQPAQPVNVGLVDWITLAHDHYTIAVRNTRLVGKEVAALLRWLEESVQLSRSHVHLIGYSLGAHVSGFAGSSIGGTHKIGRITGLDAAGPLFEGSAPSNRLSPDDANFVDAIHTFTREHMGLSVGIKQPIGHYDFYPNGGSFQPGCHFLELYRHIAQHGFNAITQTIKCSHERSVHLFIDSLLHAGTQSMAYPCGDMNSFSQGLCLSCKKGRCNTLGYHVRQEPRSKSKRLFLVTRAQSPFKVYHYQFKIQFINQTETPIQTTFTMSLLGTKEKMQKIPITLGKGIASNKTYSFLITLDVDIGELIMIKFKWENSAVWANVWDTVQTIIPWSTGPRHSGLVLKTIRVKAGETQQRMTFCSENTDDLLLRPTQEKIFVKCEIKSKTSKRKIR
Experimental: Endothelial lipase (EL) and hepatic lipase (HL) activities were measured using a fluorescent substrate, A10070, (Invitrogen, CA) doped into an artificial vesicle containing DMPG (Avanti Polar Lipids) as the excipient. Vesicles were prepared by combining 571 μL of 29 mM DMPG in a 1:1 mixture of MeOH and CHCl3 with 2000 μL of 1 mM A10070 in a 1:1 mixture of MeOH and CHCl3. The mixture was dried under nitrogen in multiple vials then resuspended in 20 mL total volume of 50 mM HEPES pH 8.0 buffer containing 50 mM NaCl and 0.2 mM EDTA. The sample was allowed to sit at room temperature for 15 min and then was sonicated 3×4 mins on ice with a Branson Sonicator using duty cycle 1. This preparation provides vesicles with a mole fraction of 0.11 for the FRET substrate.
The enzymatic assay was measured using 384-well white Optiplates. Each well contained 20 μL of assay buffer (50 mM HEPES pH 8.0, 50 mM NaCl and 1 mM CaCl2) and 0.25 μL of a DMSO solution containing a compound of interest. EL or HL (10 μL) was added and allowed to incubate with the compound for 30 min at 37° C. The source of EL was conditioned media obtained from HT-1080 cells that were transformed using RAGE technology (Athersys) to overexpress endogenous EL, and HL was partially purified from conditioned media obtained from COS cells overexpressing HL. The reaction was started by the addition of 10 μL of a 1:10 dilution of vesicles. The final total reaction volume was […]. The reaction rates were measured on a Gemini plate reader with an excitation wavelength of 490 nm and an emission wavelength of 530 nm. Readings were taken over a period of 60 minutes, and the slope between 300 and 900 secs of the readout was used to calculate the rate of the reaction.

pIC50 [1]	pIC50 [2]	Structure (SMILES)
> 8.00	5.99	COCCNC(=O)c1cccc(-c2ccc3nc(C(c4nnc(CNS(N)(=O)=O)o4)S(=O)(=O)CCC(F)(F)F)sc3c2)c1 (stereo not shown) [Example 199, N-(2-methoxyethyl)-3-(2-((5-((sulfamoylamino)methyl)-1,3,4-oxadiazol-2-yl)((3,3,3-trifluoropropyl)sulfonyl)methyl)-1,3-benzothiazol-6-yl)benzamide]
7.72	5.49	CS(=O)(=O)C(c1nnc(C[C@H]2NS(=O)(=O)NC2=O)o1)c1nc2ccc(-c3ccc(C(=O)N4CCOCC4)cc3)cc2s1 (stereo partly drawn) [Example 110, (4R)-4-((5-((methylsulfonyl) (6-(4-(4-morpholinylcarbonyl)phenyl)-1,3-benzothiazol-2-yl)methyl)-1,3,4-oxadiazol-2-yl)methyl)-1,2,5-thiadiazolidin-3-one 1,1-dioxide]
> 8.00	6.66	Cn1cc(-c2ccc3nc(C(c4nnc(CNS(N)(=O)=O)o4)S(C)(=O)=O)sc3c2)cn1 (stereo not shown) [Example 113, N-((5-((6-(1-methyl-1H-pyrazol-4-yl)-1,3-benzothiazol-2-yl)(methylsulfonyl)methyl)-1,3,4-oxadiazol-2-yl)methyl) sulfamide]
> 8.00	> 8.00	CC(C)(C)OC(=O)NS(=O)(=O)NCc1nnc(C(c2nc3ccc(-c4cc(F)cc(Cl)c4)cc3s2)S(=O)(=O)Cc2ccccc2)o1 (stereo not shown) [Example 142, tert-butyl (((5-((benzylsulfonyl)(6-(3-chloro-5-fluorophenyl)-1,3-benzothiazol-2-yl)methyl)-1,3,4-oxadiazol-2-yl)methyl)sulfamoyl)carbamate]
8.40	7.37	CS(=O)(=O)C(c1nnc(CNS(N)(=O)=O)o1)c1nc2cc(-c3cncnc3)ccc2s1 (stereo not shown) [Example 247, N-[(5-{methanesulfonyl[5-(pyrimidin-5-yl)-1,3-benzothiazol-2-yl]methyl}-1,3,4-oxadiazol-2-yl)methyl]aminosulfonamide]
> 8.00	> 8.00	NS(=O)(=O)NCc1nnc(C(c2nc3ccc(-c4ccc(F)cc4)cc3s2)S(=O)(=O)Cc2ccccc2)o1 (stereo not shown) [Example 127, N-((5-((benzylsulfonyl)(6-(4-fluorophenyl)-1,3-benzothiazol-2-yl)methyl)-1,3,4-oxadiazol-2-yl)methyl) sulfamide]
8.30	7.29	CC1(Cc2nnc(C(c3nc4ccc(-c5cccc(C(=O)NC6CC6)c5)cc4s3)S(C)(=O)=O)o2)NC(=O)NC1=O (stereo not shown) [Example 225, N-cyclopropyl-3-{2-[methanesulfonyl({5-[(4-methyl-2,5-dioxo-imidazolidin-4-yl)methyl]-1,3,4-oxadiazol-2-yl})methyl]-1,3-benzothiazol-6-yl}benzamide]
> 8.00	> 8.00	NS(=O)(=O)NCc1nnc(C(c2nc3ccc(-c4ccc(F)c(Cl)c4)cc3s2)S(=O)(=O)Cc2ccccc2)o1 (stereo not shown) [Example 139, N-((5-((benzylsulfonyl)(6-(3-chloro-4-fluorophenyl)-1,3-benzothiazol-2-yl)methyl)-1,3,4-oxadiazol-2-yl)methyl) sulfamide]
> 8.00	6.56	O=C(Cc1nnc(C(c2nc3ccc(-c4ccc(C(=O)N5CCOCC5)cc4)cc3s2)S(=O)(=O)Cc2ccccc2)o1)NCC1(O)CCC1 (stereo not shown) [Example 178, 2-(5-((benzylsulfonyl)(6-(4-(4-morpholinylcarbonyl)phenyl)-1,3-benzothiazol-2-yl)methyl)-1,3,4-oxadiazol-2-yl)-N-((1-hydroxycyclobutyl)methyl) acetamide]
8.30	6.92	CS(=O)(=O)C(c1nnc(CNS(N)(=O)=O)o1)c1nc2cc(-c3ccc(C(=O)N4CCOCC4)cc3)ccc2s1 (stereo not shown) [Example 243, N-({5-[methanesulfonyl({5-[4-(morpholine-4-carbonyl)phenyl]-1,3-benzothiazol-2-yl})methyl]-1,3,4-oxadiazol-2-yl}methyl)aminosulfonamide]
6.94	6.77	CC1(Cc2nnc(C(c3nc4ccc(-c5cccc(C(=O)N6CC[C@H](F)C6)c5)cc4s3)S(C)(=O)=O)o2)NC(=O)NC1=O (stereo partly drawn) [Example 228, 5-({5-[(6-{3-[(3S)-3-fluoropyrrolidine-1-carbonyl]phenyl}-1,3-benzothiazol-2-yl) (methanesulfonyl)methyl]-1,3,4-oxadiazol-2-yl}methyl)-5-methyl-imidazolidine-2,4-dione]
> 8.00	> 8.00	NS(=O)(=O)NCc1nnc(C(c2nc3ccc(-c4ccccc4)cc3s2)S(=O)(=O)CC(O)CO)o1 (mixture of isomers) [Example 171, N-((5-(((2,3-Dihydroxypropyl)sulfonyl)(6-phenyl-1,3-benzothiazol-2-yl)methyl)-1,3,4-oxadiazol-2-yl)methyl)sulfamide]
8.05	7.68	CS(=O)(=O)C(c1nnc(CNS(N)(=O)=O)o1)c1nc2ccc(-c3cccc(C(=O)N4CC(F)(F)C4)c3)cc2s1 (stereo not shown) [Example 251, N-{[5-({6-[3-(3,3-difluoroazetidine-1-carbonyl)phenyl]-1,3-benzothiazol-2-yl} (methanesulfonyl)methyl)-1,3,4-oxadiazol-2-yl]methyl} aminosulfonamide]
7.48	8.70	CC(C)(C)OC(=O)c1cccc(-c2ccc3nc(C(c4nnc(CC5(C)NC(=O)NC5=O)o4)S(C)(=O)=O)sc3c2)c1 (stereo not shown) [Example 203, tert-butyl 3-{2-[methanesulfonyl ({5-[(4-methyl-2,5-dioxoimidazolidin-4-yl)methyl]-1,3,4-oxadiazol-2-yl})methyl]-1,3-benzothiazol-6-yl}benzoate]
> 8.00	> 8.00	CS(=O)(=O)C(c1nnc(CC2SC(=O)NC2=O)o1)c1nc2ccc(-c3ccc(C(=O)OCc4ccccc4)cc3)cc2s1 (stereo not shown) [Example 105, benzyl 4-(2-((5-((2,4-dioxo-1,3-thiazolidin-5-yl)methyl)-1,3,4-oxadiazol-2-yl)(methylsulfonyl)methyl)-1,3-benzothiazol-6-yl)benzoate]
9.00	9.00	COCc1ccc(-c2ccc3nc(C(c4nnc(CNS(N)(=O)=O)o4)S(=O)(=O)Cc4ccc(F)cc4)sc3c2)cc1 (stereo not shown) [Example 242, N-({5-[(4-fluorophenyl)methanesulfonyl ({6-[4-(methoxymethyl)phenyl]-1,3-benzothiazol-2-yl})methyl]-1,3,4-oxadiazol-2-yl}methyl) aminosulfonamide]

Structure (SMILES)	pIC50 [1]	pIC50 [2]
NCCS(=O)(=O)C(c1nnc(CNS(N)(=O)=O)o1)c1nc2ccc(-c3ccccc3)cc2s1 (stereo not shown) [Example 187, N-[(5-{[(2-aminoethyl)sulfonyl](6-phenyl-1,3-benzothiazol-2-yl)methyl}-1,3,4-oxadiazol-2-yl)methyl] sulfuric diamide]	> 8.00	7.92
